The structures appear in SMILES notation. Entries after “also recorded” stand apart in the source; their conditions may differ.

The test system of data set [1] is SARS-CoV-2. In words: Infection of Huh7.5 cells by replication competent SARS-CoV-2, qRT-PCR. The class given is cell-based. The note with it: 10 μM, 24 hours post inoculation. How it is done: FIG. 3 illustrates the finding that only certain Sigma1 inhibitors block SARS-CoV-2 infection. […] Results can be compared to vehicle (DMSO), Remdesivir (Rem, 10 μM), and hydroxychloroquine (HCQ, 10 μM). Compounds and SARS-CoV-2 were added to cell culture; 24 hours post inoculation relative infection calculated by qRT-PCR.
A discrete set of Sigma1 modulators was tested in an assay of replication competent SARS-CoV-2 infectivity. […] Strikingly, IPAG, CT189, and CT1107 blocked SARS-CoV-2 infection by 1,000 (IPAG, CT189, CT360) to 10,000 (CT1107) fold.

Another data set concerns the target Sigma1 (Homo sapiens, UniProt Q99720). In words: Sigma1 binding, Ki.
Data set [2] relates to Vero E6 cells expressing SARS-CoV-2 spike and human TMPRSS2. The class given is cell-based. The note with it: Vero E6, 10 μM vs DMSO.
A further data set relates to human TMPRSS2. The class given is cell-based. The settings on record: Vero E6 lysates, 10 μM, FIG. 7.
The test system of data set [3] is SARS-CoV-2. In words: SARS-CoV-2 infection of VeroE6/TMPRSS2 cells, qRT-PCR. It is filed as cell-based. The settings on record: VeroE6/TMPRSS2 cells, 5, 7.5, 10 μM, 48 hours, FIG. 8. Here is the method:
(§1) FIG. 8 illustrates results obtained when VeroE6/TMPRSS2 or Caco2 cells were treated with DMSO or 5 μM, 7.5 μM, and 10 μM CT1107 and infected with SARS-CoV-2 for 48 hours. RNA was isolated and qRT-PCR was performed with virus-specific and 18S primers. Viral RNA was normalized to 18S RNA.
(§2) It was tested whether Sigma1-targeting compounds are antiviral in additional cell lines. VeroE6 cells stably expressing TMPRSS2and Caco-2 (human colorectal epithelial cells) were tested. […] In certain embodiments, these compounds are antiviral in primary respiratory epithelial cells.

For data set [4], the system named is SARS-CoV-2. In words: SARS-CoV-2 infection of Caco2 cells, qRT-PCR. It is filed as cell-based. The settings on record: Caco2 cells, 5, 7.5, 10 μM, 48 hours, FIG. 8. How it is done:
as §1, §2

The subject of data set [5] is VeroE6 cells stably expressing TMPRSS2. In words: Toxicity in VeroE6/TMPRSS2 cells. The class given is cell-based. The note with it: VeroE6/TMPRSS2 cells, 5, 7.5, 10 μM. Here is the method:
as §2

For data set [6], the system named is Caco-2 (human colorectal epithelial cells). Nature of the data set: Toxicity in Caco-2 cells. The class given is cell-based. The note with it: Caco-2 cells, 5, 7.5, 10 μM. Here is the method: as §2
The test system of a further data set is Dengue Virus. In words: Dengue virus infection of U2OS cells, qPCR. The note with it: MOI 1, ~16-18 hours, CT110 10 μM, CT1107 2.5-10 μM, FIG. 10. The class given is cell-based. Here is the method: U2OS cells were treated with DMSO or 10 μM of CT110 (also known as CT189, left graph) or DMSO or 2.5 μM, 5 μM, 7.5 μM, and 10 μM CT1107 (right graph). 2 hours after starting treatment, U2OS cells were infected with a multiplicity of infection (MOI) of 1 for Dengue Virus and incubated at 37° C. for ˜16-18 hours. Cells were harvested with Trizol and RNA was extracted for qPCR. Y-axis indicates fold change in infection.

Another data set deals with Zika Virus. In words: Zika virus infection of U2OS cells, qPCR. It is filed as cell-based. The note with it: MOI 1, ~16-18 hours, CT110 10 μM, CT1107 2.5-10 μM, FIG. 11. How it is done: U2OS cells were treated with DMSO or 10 μM of CT110 (also known as CT189, left graph) or DMSO or 2.5 μM, 5 μM, 7.5 μM, and 10 μM CT1107 (right graph). 2 hours after starting treatment, U2OS cells were infected with a multiplicity of infection (MOI) of 1 for Zika Virus and incubated at 37° C. for ˜16-18 hours. Cells were harvested with Trizol and RNA was extracted for qPCR. Y-axis indicates fold change in infection.

The next data set has as its system Powassan Virus. The class given is cell-based. The settings on record: U2OS, MOI 1, ~16-18 hours; CT110 10 μM, CT1107 2.5-10 μM, FIG. 12.
Data set [7] concerns the target T1, Androgen Receptor (Homo sapiens, UniProt P10275).
T1 sequence (P10275 1-920): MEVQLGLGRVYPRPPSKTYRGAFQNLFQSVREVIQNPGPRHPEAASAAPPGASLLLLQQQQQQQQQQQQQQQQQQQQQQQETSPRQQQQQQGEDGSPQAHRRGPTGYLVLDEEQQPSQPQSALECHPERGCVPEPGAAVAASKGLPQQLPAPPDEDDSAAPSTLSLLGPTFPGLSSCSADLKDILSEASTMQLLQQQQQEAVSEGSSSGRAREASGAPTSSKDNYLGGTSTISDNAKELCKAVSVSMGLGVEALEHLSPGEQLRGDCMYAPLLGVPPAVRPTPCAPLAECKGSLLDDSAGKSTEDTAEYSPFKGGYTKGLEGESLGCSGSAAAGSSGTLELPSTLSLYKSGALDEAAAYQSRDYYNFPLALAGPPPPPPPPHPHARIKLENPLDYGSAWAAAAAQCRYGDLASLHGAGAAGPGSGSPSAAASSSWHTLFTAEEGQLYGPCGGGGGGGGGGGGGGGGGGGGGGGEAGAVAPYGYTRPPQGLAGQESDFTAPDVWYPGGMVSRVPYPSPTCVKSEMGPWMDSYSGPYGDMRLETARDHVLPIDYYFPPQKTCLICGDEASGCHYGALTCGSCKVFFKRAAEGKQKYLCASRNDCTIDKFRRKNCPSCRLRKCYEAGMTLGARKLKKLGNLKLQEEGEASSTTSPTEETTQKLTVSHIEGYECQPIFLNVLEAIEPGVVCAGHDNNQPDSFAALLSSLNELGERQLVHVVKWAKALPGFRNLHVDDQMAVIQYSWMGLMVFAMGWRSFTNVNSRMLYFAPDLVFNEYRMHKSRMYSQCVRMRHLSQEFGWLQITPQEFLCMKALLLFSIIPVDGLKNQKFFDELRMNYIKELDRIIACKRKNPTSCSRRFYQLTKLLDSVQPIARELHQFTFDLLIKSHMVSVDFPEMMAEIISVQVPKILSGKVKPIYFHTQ
Nature of the data set: cell-based.

In data set [8] the target is T1, Androgen Receptor.

Chain of Sigma1 (Q99720 whole entry): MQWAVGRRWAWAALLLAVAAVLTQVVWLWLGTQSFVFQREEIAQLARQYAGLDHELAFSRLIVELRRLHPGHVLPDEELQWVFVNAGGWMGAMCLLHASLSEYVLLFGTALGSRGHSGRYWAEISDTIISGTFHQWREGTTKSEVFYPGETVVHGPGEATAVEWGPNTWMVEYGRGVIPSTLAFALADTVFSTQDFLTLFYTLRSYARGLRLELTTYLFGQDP

Consider `O=C(OCCN1CCOCC1)C1(c2ccccc2)CCCCC1` [PRE084, 2-morpholin-4-ylethyl 1-phenylcyclohexane-1-carboxylate, reference compound], for which the “effect on SARS-CoV-2 infection (in words)” value (shortened to “effect … (in words)”) in the data set with SARS-CoV-2 [1] (FIG. 3) is listed as “did not block infection”.
`COc1cc(NC(=N)NCCC(C)(C)c2ccc(C(F)(F)F)cc2)ncc1C#N` [Compound F, 1-(5-cyano-4-methoxypyridin-2-yl)-3-(3-methyl-3-(4-(trifluoromethyl)phenyl)butyl)guanidine]: the affinity at Sigma1 corresponds to a Ki of 11 nM. Also, the “blocked SARS-CoV-2 infection, fold” value in the data set with SARS-CoV-2 [1] (FIG. 3) is recorded as 10,000 fold. Besides, the “effect … (in words)” value in the data set with SARS-CoV-2 [1] (FIG. 3, listed as CT1107) is “suppressed SARS-CoV-2 infection; also recorded: inhibit SARS-CoV-2 infection; also recorded: most potent inhibitor of CoV-2 infection”. The number of syncytia entry in [2] (FIG. 5) is on record as “significant decrease”. In addition, the “size of syncytia (number of nuclei per syncytia)” value in data set [2] (FIG. 6) is reported as “significant decrease”. Also, in the data set with human TMPRSS2, the TMPRSS2 protein level entry is “clear decrease”. The “antiviral effect on SARS-CoV-2” value in the data set on SARS-CoV-2 [3] and with SARS-CoV-2 [4] was “potently antiviral” each time. For the same molecule, the toxicity entry in [5] and in data set [6] was “without toxicity” each time. The “Dengue virus infection (fold change in infection)” value with Dengue Virus is on record as “inhibit dengue virus infection”. Moreover, in the data set with Zika Virus, the “Zika virus infection (fold change in infection)” value is “inhibit Zika virus infection”. The “Powassan virus infection (fold change in infection)” value with Powassan Virus is given as “inhibit Powassan virus infection”. The concentration for half-maximal inhibition (IC50) against Androgen Receptor [7] stood at 3000 nM.
Regarding `COC(=O)c1ccc(NC(=N)NCCC(C)(C)c2ccc(C(F)(F)F)cc2)nc1` [Compound G, methyl 6-(3-(3-methyl-3-(4-(trifluoromethyl)phenyl)butyl)guanidino)nicotinate], on Sigma1, the Ki worked out at 3 nM. This molecule also returned a half-inhibitory concentration (IC50) at Androgen Receptor [7] of 2800 nM.
As to `O=C(CCCN1CCC(O)(c2ccc(Cl)cc2)CC1)c1ccc(F)cc1` [haloperidol, 4-[4-(4-chlorophenyl)-4-hydroxypiperidin-1-yl]-1-(4-fluorophenyl)butan-1-one, reference compound], the “effect … (in words)” value in the data set with SARS-CoV-2 [1] (FIG. 3) is recorded as “suppressed SARS-CoV-2 infection”; with SARS-CoV-2 [1] (FIG. 3, listed as Haloperidol), “clear but modest antiviral effect”.
On Sigma1, `CC(C)(CCNC(=N)Nc1ccc(Cl)c(Cl)c1)Oc1ccc(C(F)(F)F)cc1` [Compound D, 1-(3,4-dichlorophenyl)-3-(3-methyl-3-(4-(trifluoromethyl)phenoxy)butyl)guanidine] displayed a Ki of 8 nM. Moreover, it took 3000 nM to reach half-maximal inhibition against Androgen Receptor [7] (IC50).
`COC(=O)c1ccc(NC(=N)NCC(C)(C)COc2ccc(C(F)(F)F)cc2)nc1` [Compound H, methyl 6-(3-(2,2-dimethyl-3-(4-(trifluoromethyl)phenoxy)propyl)guanidino)nicotinate]: the Ki on Sigma1 came out at 18 nM. In addition, in the data set with SARS-CoV-2 [1] (FIG. 3), the “blocked SARS-CoV-2 infection, fold” value was 1,000 fold and the “effect … (in words)” value is reported as “inhibit SARS-CoV-2 infection”. Moreover, at Androgen Receptor [7], the midpoint of inhibition, the IC50, lay at 2900 nM.
As to `COc1cc(NC(=N)NCCC(C)(C)Oc2ccc(C(F)(F)F)cc2)cnc1C#N` [Compound A, 1-(6-cyano-5-methoxypyridin-3-yl)-3-(3-methyl-3-(4-(trifluoromethyl)phenoxy)butyl)guanidine], the inhibitory constant (Ki) at Sigma1 came to 9 nM. On Androgen Receptor [7], this molecule had an IC50 of 8100 nM.
As for `COc1ccc(CCN2CCN(CCCc3ccccc3)CC2)cc1OC` [SA4503, 1-(3,4-dimethoxyphenethyl)-4-(3-phenylpropyl) piperazine, reference compound], in the data set with SARS-CoV-2 [1] (FIG. 3), the “effect … (in words)” value is listed as “did not block infection”.
In the case of `CC(C)(CCNC(=N)Nc1cnc(C(F)(F)F)nc1)Oc1ccc(C(F)(F)F)cc1` [Compound I, 1-(3-methyl-3-(4-(trifluoromethyl)phenoxy)butyl)-3-(2-(trifluoromethyl)pyrimidin-5-yl)guanidine], the affinity at Sigma1, expressed as Ki, was 35 nM. The molecule also registered an IC50 against Androgen Receptor [7] of 10500 nM.
Molecule `COc1cc(NC(=N)NCCC(C)(C)Oc2ccc(C(F)(F)F)cc2)cnc1C#N` [Compound J, 1-(6-cyano-5-methoxypyridin-3-yl)-3-(3-methyl-3-(4-(trifluoromethyl)phenoxy)butyl)guanidine] had a Ki on Sigma1 of 7 nM. Also, the IC50 against Androgen Receptor [7] worked out at 8500 nM.
The corresponding values for `COc1cc(NC(=N)NCC(C)(C)COc2ccc(C(F)(F)F)cc2)cnc1C#N` [Compound B, 1-(6-cyano-5-methoxypyridin-3-yl)-3-(2,2-dimethyl-3-(4-(trifluoromethyl)phenoxy)propyl)guanidine] are 6 nM and 10000 nM.
For `Cc1cc(OCCN2CCOCC2)nn1-c1ccc2ccccc2c1` [Compound S1RA, 4-[2-[[5-methyl-1-(2-naphthalenyl)-1H-pyrazol-3-yl]oxy]ethyl]morpholine, reference compound], in the data set with SARS-CoV-2 [1] (FIG. 3), the “effect … (in words)” value is recorded as “did not block infection; also recorded: does not block infection”.
As to `N=C(NCCCOc1ccc(F)cc1)Nc1ccc(Cl)cc1` [CT189], in the data set with SARS-CoV-2 [1] (FIG. 3), the “blocked SARS-CoV-2 infection, fold” value was 1,000 fold and the “effect … (in words)” value is “suppressed SARS-CoV-2 infection; also recorded: inhibit SARS-CoV-2 infection”. Besides, the “Dengue virus infection (fold change in infection)” value with Dengue Virus is recorded as “inhibit dengue virus infection”. Besides, the “Zika virus infection (fold change in infection)” value in the data set on Zika Virus is listed as “inhibit Zika virus infection”. In addition, in the data set with Powassan Virus, the “Powassan virus infection (fold change in infection)” value is recorded as “inhibit Powassan virus infection”. The “dihydrotesterone (DHT) induced AR transcriptional activity” value at Androgen Receptor [8] is recorded as “inhibition”.
`CC(C)(CCNC(=N)Nc1cnc(Cl)c(F)c1)Oc1ccc(C(F)(F)F)cc1` [Compound E, 1-(6-chloro-5-fluoropyridin-3-yl)-3-(3-methyl-3-(4-(trifluoromethyl)phenoxy)butyl)guanidine] had a Ki on Sigma1 of 5 nM. Moreover, it took 5000 nM to reach half-maximal inhibition on Androgen Receptor [7] (IC50).

(Values after patent US12582619B2 (priority 2020, dated 2026).)
